{"source": "paper PMC11240139", "about": "“Exploring the antitumor potential of novel quinoline derivatives via tubulin polymerization inhibition in breast cancer; design, synthesis and molecular docking” (RSC Advances, 2024)", "test_in_all_cases": "NCI-60 SRB cytotoxicity screen", "assay_type_in_all_cases": "cell-based", "key": {"HL-60(TB) (leukemia)": {"test_system": "HL-60(TB) (leukemia)"}, "K-562 (leukemia)": {"test_system": "K-562 (leukemia)"}, "MOLT-4 (leukemia)": {"test_system": "MOLT-4 (leukemia)"}, "[1]": {"test_system": "A549/ATCC (non-small cell lung cancer)"}, "[2]": {"test_system": "EKVX (non-small cell lung cancer)"}, "[3]": {"test_system": "NCI-H23 (non-small cell lung cancer)"}, "[4]": {"test_system": "NCI-H322M (non-small cell lung cancer)"}, "[5]": {"test_system": "NCI-H522 (non-small cell lung cancer)"}, "COLO 205 (colon cancer)": {"test_system": "COLO 205 (colon cancer)"}, "HCC-2998 (colon cancer)": {"test_system": "HCC-2998 (colon cancer)"}, "HCT-116 (colon cancer)": {"test_system": "HCT-116 (colon cancer)"}, "HCT-15 (colon cancer)": {"test_system": "HCT-15 (colon cancer)"}, "SW-620 (colon cancer)": {"test_system": "SW-620 (colon cancer)"}, "SF-268 (CNS cancer)": {"test_system": "SF-268 (CNS cancer)"}, "SF-539 (CNS cancer)": {"test_system": "SF-539 (CNS cancer)"}, "SNB-19 (CNS cancer)": {"test_system": "SNB-19 (CNS cancer)"}, "SNB-75 (CNS cancer)": {"test_system": "SNB-75 (CNS cancer)"}, "U251 (CNS cancer)": {"test_system": "U251 (CNS cancer)", "conditions": "Homo sapiens, U-251; U251, five-dose assay"}, "[6]": {"conditions": "Homo sapiens, single dose 10 μM, read-out: growth inhibition (GI%)"}, "[7]": {"conditions": "Homo sapiens, five-dose assay, read-out: LC50 (the source's name)"}, "[8]": {"conditions": "Homo sapiens, NCI-H23, five-dose assay"}, "[9]": {"conditions": "Homo sapiens, NCI-H522, five-dose assay"}, "[10]": {"conditions": "Homo sapiens, COLO 205, five-dose assay"}, "[11]": {"conditions": "Homo sapiens, HCC-2998, five-dose assay"}, "[12]": {"conditions": "Homo sapiens, HCT-116, five-dose assay"}, "[13]": {"conditions": "Homo sapiens, HCT-15, five-dose assay"}, "[14]": {"conditions": "Homo sapiens, SW-620, five-dose assay"}, "[15]": {"conditions": "Homo sapiens, SF-539, five-dose assay"}, "[16]": {"conditions": "Homo sapiens, SNB-19, five-dose assay"}}, "data": [{"smiles": "CCc1cccc2cc(-c3cc(-c4cc(OC)c(OC)c(OC)c4)[nH]c(=O)c3C#N)c(Cl)nc12", "note": "[Compound 4c, 4-(2-Chloro-8-ethylquinolin-3-yl)-2-oxo-6-(3,4,5-trimethoxyphenyl)-1,2-dihydropyridine-3-carbonitrile]", "values": [{"measurement": "GI50", "setting": "HL-60(TB) (leukemia); Homo sapiens, five-dose assay", "value": 13.4, "unit": "µM"}, {"measurement": "LC50", "setting": "HL-60(TB) (leukemia); Homo sapiens, five-dose assay", "value": "> 100", "unit": "µM"}, {"measurement": "inhibition at 10 µM", "setting": "HL-60(TB) (leukemia); [6]", "value": 71.3, "unit": "%"}, {"measurement": "TGI", "setting": "HL-60(TB) (leukemia); five-dose assay", "value": ">100", "unit": "µM"}, {"measurement": "GI50", "setting": "K-562 (leukemia); Homo sapiens, K562, K-562, five-dose assay", "value": 7.72, "unit": "µM"}, {"measurement": "CC50", "setting": "K-562 (leukemia); Homo sapiens, K562, K-562, five-dose assay, read-out: LC50 (the source's name)", "value": "> 100", "unit": "µM"}, {"measurement": "inhibition at 10 µM", "setting": "K-562 (leukemia); Homo sapiens, K-652 [sic], single dose 10 μM, read-out: growth inhibition (GI%)", "value": 31.4, "unit": "%"}, {"measurement": "TGI", "setting": "K-562 (leukemia); K-562, five-dose assay", "value": 43.80, "unit": "µM"}, {"measurement": "GI50", "setting": "MOLT-4 (leukemia); Homo sapiens, MOLT-4, five-dose assay", "value": 8.17, "unit": "µM"}, {"measurement": "CC50", "setting": "MOLT-4 (leukemia); Homo sapiens, MOLT-4, five-dose assay, read-out: LC50 (the source's name)", "value": "> 100", "unit": "µM"}, {"measurement": "inhibition at 10 µM", "setting": "MOLT-4 (leukemia); Homo sapiens, MOLT-4, single dose 10 μM, read-out: growth inhibition (GI%)", "value": 76.4, "unit": "%"}, {"measurement": "TGI", "setting": "MOLT-4 (leukemia); MOLT-4, five-dose assay", "value": 79.90, "unit": "µM"}, {"measurement": "GI50", "setting": "[1]; Homo sapiens, five-dose assay", "value": 12.2, "unit": "µM"}, {"measurement": "CC50", "setting": "[1]; [7]", "value": "> 100", "unit": "µM"}, {"measurement": "inhibition at 10 µM", "setting": "[1]; [6]", "value": 88.2, "unit": "%"}, {"measurement": "TGI", "setting": "[1]; five-dose assay", "value": 48.70, "unit": "µM"}, {"measurement": "GI50", "setting": "[2]; Homo sapiens, five-dose assay", "value": 28.6, "unit": "µM"}, {"measurement": "CC50", "setting": "[2]; [7]", "value": "> 100", "unit": "µM"}, {"measurement": "inhibition at 10 µM", "setting": "[2]; [6]", "value": 50.1, "unit": "%"}, {"measurement": "TGI", "setting": "[2]; five-dose assay", "value": ">100", "unit": "µM"}, {"measurement": "GI50", "setting": "[3]; [8]", "value": 3.2, "unit": "µM"}, {"measurement": "LC50 (concentration killing 50% of cells)", "setting": "[3]; [8]", "value": "> 100", "unit": "µM"}, {"measurement": "inhibition at 10 µM", "setting": "[3]; Homo sapiens, NCI-H23, single dose 10 μM, read-out: growth inhibition (GI%)", "value": 68.6, "unit": "%"}, {"measurement": "TGI", "setting": "[3]; NCI-H23, five-dose assay", "value": ">100", "unit": "µM"}, {"measurement": "GI50", "setting": "[4]; Homo sapiens, five-dose assay", "value": 10.5, "unit": "µM"}, {"measurement": "LC50 (concentration causing 50% net cell kill)", "setting": "[4]; Homo sapiens, five-dose assay", "value": "> 100", "unit": "µM"}, {"measurement": "inhibition at 10 µM", "setting": "[4]; [6]", "value": 53.7, "unit": "%"}, {"measurement": "TGI", "setting": "[4]; five-dose assay", "value": ">100", "unit": "µM"}, {"measurement": "GI50", "setting": "[5]; [9]", "value": 19.1, "unit": "µM"}, {"measurement": "LC50 (concentration causing 50% net cell kill)", "setting": "[5]; [9]", "value": "> 100", "unit": "µM"}, {"measurement": "inhibition at 10 µM", "setting": "[5]; Homo sapiens, NCI-H522, single dose 10 μM, read-out: growth inhibition (GI%)", "value": "> 100", "unit": "%"}, {"measurement": "TGI", "setting": "[5]; NCI-H522, five-dose assay", "value": ">100", "unit": "µM"}, {"measurement": "growth inhibition (GI%)", "setting": "[5]; NCI-H522, single dose 10 μM", "value": "lethal effect"}, {"measurement": "TGI", "setting": "COLO 205 (colon cancer); COLO 205, five-dose assay", "value": ">100", "unit": "µM"}, {"measurement": "GI50", "setting": "COLO 205 (colon cancer); [10]", "value": 45.6, "unit": "µM"}, {"measurement": "LC50", "setting": "COLO 205 (colon cancer); [10]", "value": "> 100", "unit": "µM"}, {"measurement": "inhibition at 10 µM", "setting": "COLO 205 (colon cancer); Homo sapiens, COLO 205, single dose 10 μM, read-out: growth inhibition (GI%)", "value": "< 10", "unit": "%"}, {"measurement": "TGI", "setting": "HCC-2998 (colon cancer); HCC-2998, five-dose assay", "value": ">100", "unit": "µM"}, {"measurement": "GI50", "setting": "HCC-2998 (colon cancer); [11]", "value": 35.7, "unit": "µM"}, {"measurement": "LC50 (50% lethal concentration)", "setting": "HCC-2998 (colon cancer); [11]", "value": "> 100", "unit": "µM"}, {"measurement": "inhibition at 10 µM", "setting": "HCC-2998 (colon cancer); Homo sapiens, HCC-2998, single dose 10 μM, read-out: growth inhibition (GI%)", "value": 47, "unit": "%"}, {"measurement": "TGI", "setting": "HCT-116 (colon cancer); HCT-116, five-dose assay", "value": 33.30, "unit": "µM"}, {"measurement": "GI50", "setting": "HCT-116 (colon cancer); [12]", "value": 14.1, "unit": "µM"}, {"measurement": "LC50", "setting": "HCT-116 (colon cancer); [12]", "value": 78.4, "unit": "µM"}, {"measurement": "inhibition at 10 µM", "setting": "HCT-116 (colon cancer); Homo sapiens, HCT-116, single dose 10 μM, read-out: growth inhibition (GI%)", "value": 69.1, "unit": "%"}, {"measurement": "TGI", "setting": "HCT-15 (colon cancer); HCT-15, five-dose assay", "value": ">100", "unit": "µM"}, {"measurement": "GI50", "setting": "HCT-15 (colon cancer); [13]", "value": 27.6, "unit": "µM"}, {"measurement": "LC50 (concentration causing 50% net cell kill)", "setting": "HCT-15 (colon cancer); [13]", "value": "> 100", "unit": "µM"}, {"measurement": "inhibition at 10 µM", "setting": "HCT-15 (colon cancer); Homo sapiens, HCT-15, single dose 10 μM, read-out: growth inhibition (GI%)", "value": 35.8, "unit": "%"}, {"measurement": "GI50", "setting": "SW-620 (colon cancer); [14]", "value": 27.5, "unit": "µM"}, {"measurement": "LC50 (lethal concentration, 50% net cell kill)", "setting": "SW-620 (colon cancer); [14]", "value": "> 100", "unit": "µM"}, {"measurement": "inhibition at 10 µM", "setting": "SW-620 (colon cancer); Homo sapiens, SW-620, single dose 10 μM, read-out: growth inhibition (GI%)", "value": 17.4, "unit": "%"}, {"measurement": "TGI", "setting": "SW-620 (colon cancer); SW-620, five-dose assay", "value": ">100", "unit": "µM"}, {"measurement": "GI50", "setting": "SF-268 (CNS cancer); Homo sapiens, SF-268, five-dose assay", "value": 13.8, "unit": "µM"}, {"measurement": "CC50", "setting": "SF-268 (CNS cancer); Homo sapiens, SF-268, five-dose assay, read-out: LC50 (the source's name)", "value": "> 100", "unit": "µM"}, {"measurement": "inhibition at 10 µM", "setting": "SF-268 (CNS cancer); Homo sapiens, SF-268, single dose 10 μM, read-out: growth inhibition (GI%)", "value": 34.4, "unit": "%"}, {"measurement": "TGI", "setting": "SF-268 (CNS cancer); SF-268, five-dose assay", "value": ">100", "unit": "µM"}, {"measurement": "GI50", "setting": "SF-539 (CNS cancer); [15]", "value": 12, "unit": "µM"}, {"measurement": "LC50 (50% lethal concentration)", "setting": "SF-539 (CNS cancer); [15]", "value": 51.3, "unit": "µM"}, {"measurement": "inhibition at 10 µM", "setting": "SF-539 (CNS cancer); Homo sapiens, SF-539, single dose 10 μM, read-out: growth inhibition (GI%)", "value": "> 100", "unit": "%"}, {"measurement": "TGI", "setting": "SF-539 (CNS cancer); SF-539, five-dose assay", "value": 24.80, "unit": "µM"}, {"measurement": "growth inhibition (GI%)", "setting": "SF-539 (CNS cancer); SF-539, single dose 10 μM", "value": "lethal effect"}, {"measurement": "GI50", "setting": "SNB-19 (CNS cancer); [16]", "value": 9.25, "unit": "µM"}, {"measurement": "LC50 (50% lethal concentration)", "setting": "SNB-19 (CNS cancer); [16]", "value": "> 100", "unit": "µM"}, {"measurement": "inhibition at 10 µM", "setting": "SNB-19 (CNS cancer); Homo sapiens, SNB-19, single dose 10 μM, read-out: growth inhibition (GI%)", "value": 89.6, "unit": "%"}, {"measurement": "TGI", "setting": "SNB-19 (CNS cancer); SNB-19, five-dose assay", "value": 50.90, "unit": "µM"}, {"measurement": "inhibition at 10 µM", "setting": "SNB-75 (CNS cancer); Homo sapiens, SNB-75, SNB-75, single dose 10 μM, read-out: growth inhibition (GI%)", "value": "> 100", "unit": "%"}, {"measurement": "GI50", "setting": "SNB-75 (CNS cancer); Homo sapiens, SNB-75, five-dose assay", "value": 2.38, "unit": "µM"}, {"measurement": "CC50", "setting": "SNB-75 (CNS cancer); Homo sapiens, SNB-75, five-dose assay, read-out: LC50 (the source's name)", "value": 52.6, "unit": "µM"}, {"measurement": "TGI", "setting": "SNB-75 (CNS cancer); SNB-75, five-dose assay", "value": 16.90, "unit": "µM"}, {"measurement": "GI50", "setting": "U251 (CNS cancer)", "value": 10.8, "unit": "µM"}, {"measurement": "LC50 (concentration killing 50% of cells)", "setting": "U251 (CNS cancer)", "value": 74.9, "unit": "µM"}]}]}
